From ChEMBL document CHEMBL5360564, “Small molecule LpxC inhibitors against gram-negative bacteria: Advances and future perspectives” (Eur J Med Chem, 2023) come the findings set out here.

Converted amounts (≈) assume the structure as drawn. Where only a bound is given, the exact number is not on record here.

Usually IC50 stands for the concentration needed to halve the response being measured. In general, Ki refers to the dissociation constant of the complex between target and ligand, obtained from inhibition or displacement. By MIC is commonly meant the lowest concentration found to suppress growth.

Test [1] addresses T1, UDP-3-O-acyl-N-acetylglucosamine deacetylase (Escherichia coli K-12, UniProt P0A725).
T1 sequence (P0A725 whole entry): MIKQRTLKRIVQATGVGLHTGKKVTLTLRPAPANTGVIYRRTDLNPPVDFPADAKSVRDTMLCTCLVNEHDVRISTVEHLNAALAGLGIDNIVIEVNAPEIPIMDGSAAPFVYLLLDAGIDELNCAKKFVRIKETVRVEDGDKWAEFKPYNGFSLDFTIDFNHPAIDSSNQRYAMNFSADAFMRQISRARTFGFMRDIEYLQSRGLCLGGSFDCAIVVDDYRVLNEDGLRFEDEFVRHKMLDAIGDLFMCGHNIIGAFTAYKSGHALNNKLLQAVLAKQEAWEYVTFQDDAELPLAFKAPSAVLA
In words: Inhibition of Escherichia coli LpxC.

Test [2] addresses T1, UDP-3-O-acyl-N-acetylglucosamine deacetylase. In words: Inhibition of Escherichia coli LpxC assessed as inhibition constant measured after 30 mins by fluorescence based microplate assay.
Test [3] has as its target T2, UDP-3-O-acyl-N-acetylglucosamine deacetylase (Pseudomonas aeruginosa, UniProt B5ATN6).
T2 sequence (B5ATN6 whole entry): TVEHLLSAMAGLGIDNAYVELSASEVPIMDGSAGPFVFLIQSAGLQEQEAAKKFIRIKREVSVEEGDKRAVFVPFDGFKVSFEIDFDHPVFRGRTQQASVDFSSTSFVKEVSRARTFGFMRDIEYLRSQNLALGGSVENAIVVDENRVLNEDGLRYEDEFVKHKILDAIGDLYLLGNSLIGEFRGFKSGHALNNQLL
In words: Inhibition of recombinant Pseudomonas aeruginosa LpxC expressed in Escherichia coli.

Test [4] has as its system Pseudomonas aeruginosa. In words: Antibacterial activity against Pseudomonas aeruginosa clinical isolate assessed as bacterial growth inhibition by microdilution assay. The class given is functional. A general note: In broth dilution the organism is exposed to a series of concentrations in liquid medium.
Test [5] has as its system Escherichia coli. In words: Antibacterial activity against wild type Escherichia coli W3110 assessed as bacterial growth inhibition measured after 22 hrs by MTT assay. The class given is functional.
The test system of test [6] is Escherichia coli. In words: Antibacterial activity against Escherichia coli assessed as bacterial growth inhibition two-fold microdilution. Format: functional.
The subject of another test is Klebsiella pneumoniae. In words: Antibacterial activity against Klebsiella pneumoniae assessed as bacterial growth inhibition two-fold microdilution. The class given is functional.
The test system of test [7] is Escherichia coli. In words: Antibacterial activity against Escherichia coli DH5alpha assessed as bacterial growth inhibition measured after 18 hrs by broth microdilution assay. Format: functional.
Test [8] concerns Pseudomonas aeruginosa. In words: Antibacterial activity against Pseudomonas aeruginosa PAO1 assessed as bacterial growth inhibition measured after 18 hrs by broth microdilution assay. The class given is functional.
Test [9] relates to Pseudomonas aeruginosa. In words: Antibacterial activity against Pseudomonas aeruginosa PA14 assessed as bacterial growth inhibition measured after 18 hrs by broth microdilution assay. Format: functional.
Test [10] concerns Escherichia coli. In words: Antibacterial activity against Escherichia coli CMCC 25922 assessed as bacterial growth inhibition measured after 22 hrs. The class given is functional.
Test [11] relates to Escherichia coli. In words: Antibacterial activity against Escherichia coli CMCC 44568 assessed as bacterial growth inhibition measured after 22 hrs. The class given is functional.
Test [12] deals with Pseudomonas aeruginosa. In words: Antibacterial activity against Pseudomonas aeruginosa CMCC 27853 assessed as bacterial growth inhibition measured after 22 hrs. Format: functional.
The subject of test [13] is Pseudomonas aeruginosa. In words: Antibacterial activity against Pseudomonas aeruginosa CMCC 10104 assessed as bacterial growth inhibition measured after 22 hrs. The class given is functional.
Test [14] deals with Escherichia coli. In words: Antibacterial activity against Escherichia coli MB4926 assessed as bacterial growth inhibition. The class given is functional.
For test [15], the system named is Escherichia coli. In words: Antibacterial activity against Escherichia coli MB5500 assessed as bacterial growth inhibition. The class given is functional.
In test [16] the target is T3, UDP-3-O-acyl-N-acetylglucosamine deacetylase (Aquifex aeolicus (strain VF5), UniProt O67648).
T3 sequence (O67648 whole entry): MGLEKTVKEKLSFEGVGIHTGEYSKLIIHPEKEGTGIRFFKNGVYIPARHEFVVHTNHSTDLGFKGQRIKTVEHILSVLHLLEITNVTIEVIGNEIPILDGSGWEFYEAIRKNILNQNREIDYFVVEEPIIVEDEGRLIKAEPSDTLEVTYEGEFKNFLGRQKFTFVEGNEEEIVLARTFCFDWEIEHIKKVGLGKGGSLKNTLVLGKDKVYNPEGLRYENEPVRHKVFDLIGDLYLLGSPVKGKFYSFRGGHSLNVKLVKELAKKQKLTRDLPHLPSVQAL
In words: Inhibition of Aquifex aeolicus LpxC transformed in Escherichia coli BL21(DE3) pLysS cells.

Test [17] concerns Pseudomonas aeruginosa. In words: Antibacterial activity against Pseudomonas aeruginosa HER 1018 assessed as bacterial growth inhibition by twofold dilution method. Format: functional.
Test [18] deals with Escherichia coli. In words: Antibacterial activity against Escherichia coli D21 assessed as bacterial growth inhibition measured after 20 hrs by checkerboard method. The class given is functional.

Turning to `O=c1ccn([C@@H]2O[C@H](CO/N=C/c3ccc(O)c(O)c3O)[C@@H](O)[C@H]2O)c(=O)[nH]1`, it took 27000 nM to reach half-maximal inhibition in test [1] (IC50).

As to `O=C(CO/N=C/c1ccc(O)c(O)c1O)NC[C@H]1O[C@@H](n2ccc(=O)[nH]c2=O)[C@H](O)[C@@H]1O`, in test [1], the IC50 was 120000 nM.

For `O=C(NO)C1(COc2ccc(C#Cc3ccc(CN4CCOCC4)cc3)cc2)CCOCC1`, the Ki in [2] worked out at 352 nM.

For the molecule `CC(C)(N)[C@H](NC(=O)c1ccc(C#CC#C[C@@H](O)CO)cc1)C(=O)NO`, the IC50 in test [3] was found to be 12 nM. In addition, the MIC with Pseudomonas aeruginosa [4] was found to be 8.8 µg/mL.

On to `C[C@@H](O)[C@](C)(NC(=O)c1ccc(C#CC#Cc2ccc(N)cc2)cc1)C(=O)NO`, for which the MIC in the test with Escherichia coli [5] was found to be 0.24 µg/mL (≈ 0.613 µM).

Consider `COC1([C@H](NC(=O)c2ccc(C#CC#CCCO)cc2)C(=O)NO)CS(=O)(=O)C1`, for which the MIC in the test with Pseudomonas aeruginosa [4] was 2.3 µg/mL.

`C[C@H](O)c1nccn1Cc1cc(-c2ccc(C#C[C@@H]3[C@H]4CN(CCCC(=O)O)C[C@@H]34)cc2)on1` registered an IC50 in [1] of 101 nM. Also, the minimal inhibitory concentration (MIC) in the test with Escherichia coli [6] and in the test on Klebsiella pneumoniae was 2 µg/mL (≈ 4.34 µM) in each case.

Take `C[C@@H](O)[C@H](NC(=O)c1ccc(C#CC#Cc2ccccc2)cc1)C(=O)NO`: in the test with Escherichia coli [5], the MIC is 0.05 µg/mL (≈ 0.138 µM).

Regarding `O=C(C[C@@H]1CN(c2ccc(C#Cc3ccccc3)cc2)CO1)NO`, the figures for the MIC with Escherichia coli [7], with Pseudomonas aeruginosa [8] and with Pseudomonas aeruginosa [9] were 1.25 µM (≈ 0.403 µg/mL), 1.25 µg/mL (≈ 3.88 µM) and 10 µg/mL (≈ 31 µM), respectively.

With `N=C(N)N/N=C/c1ccc(C#CC#Cc2ccccc2Cl)cc1`, the MIC was 8 µg/mL (≈ 24.9 µM) in the test on Escherichia coli [10], 64 µg/mL (≈ 200 µM) in the test on Escherichia coli [11], above 128 µg/mL with Pseudomonas aeruginosa [12] and 4 µg/mL (≈ 12.5 µM) in the test with Pseudomonas aeruginosa [13].

For the molecule `CCCc1cc(C2=N[C@@H](C(=O)NO)CO2)cc(OC)c1OC`, the MIC with Escherichia coli [14] and with Escherichia coli [15] was 1 µg/mL (≈ 3.24 µM) in each case.

Take `CC(C)(N)[C@H](NC(=O)c1ccc(C#CC#C[C@H](O)CO)cc1)C(=O)NO`: the IC50 in test [3] amounted to 19 nM. Besides, the MIC in the test on Pseudomonas aeruginosa [4] is 3.5 µg/mL.

With `N=C(N)N/N=C/c1ccc(C#Cc2ccc(Cl)cc2)cc1`, the MIC is 2 µg/mL (≈ 6.74 µM) in the test on Escherichia coli [10], 2 µg/mL (≈ 6.74 µM) in the test with Escherichia coli [11], above 128 µg/mL in the test on Pseudomonas aeruginosa [12] and 1 µg/mL (≈ 3.37 µM) with Pseudomonas aeruginosa [13].

The molecule `CCCCCC(=O)O[C@@H]1[C@@H](CP(C)(=O)O)CO[C@H](CO)[C@H]1O` registered an IC50 in test [16] of 192 nM.

In the case of `CS(=O)(=O)[C@](F)(CCc1ccc(-c2ccccc2)cc1)C(=O)NO`, in the test on Pseudomonas aeruginosa [17], the MIC stood at 12.5 µg/mL (≈ 35.6 µM).

Consider `O=C(NO)[C@@H](Cc1ccc2ccccc2c1)NS(=O)(=O)c1ccc2ccccc2c1`, for which the MIC in the test on Escherichia coli [18] came to 2 µg/mL.

As to `CC(C)(N)[C@H](NC(=O)c1ccc(C#CC#CC2CC2)cc1)C(=O)NO`, the IC50 in test [3] came to 0.62 nM. Further, in the test on Pseudomonas aeruginosa [4], the MIC was determined as 0.16 µg/mL.
